Like-named read-outs stand apart in the source and are kept apart here. Some results are limits rather than exact numbers.

By IC50 is commonly meant the midpoint of a concentration-inhibition curve.

In assay [1] the test system is absorption of sodium from the intestinal lumen. Briefly: Inhibition of intestinal sodium absorption in mice. The settings on record: CD-1 mice, 15 mg/kg oral gavage twice daily; for Fecal fluid content (Δ from vehicle): day 3, change from vehicle group mean; for response vs control in vivo at 15 mg/kg: Mus musculus, 72 h. It counts as in vivo. The method, then: Urinary and fecal sodium excretions were measured to assess the ability of selected example compounds to inhibit the absorption of sodium from the intestinal lumen. In addition, an assessment of the absence or presence of diarrhea in response to compound treatment was made. Approximately eight-week old, male, CD-1 mice were purchased from Envigo (Livermore, Calif.), were housed 6 per cage and acclimated for at least 48 hours before study initiation. Animals were fed Harlan Teklad Global TD.160470 rodent chow (Madison, Wis.), standard laboratory rodent chow Harlan Teklad Global 2018 with the addition of 0.4% inorganic phosphorous. […] To initiate the study, mice were weighed and then individually placed in metabolic cages. Following a 3-day acclimation period to the metabolic cage, a 24-hr baseline collection of urine and feces was performed. […] Each day, measurements of body weight. 24-hour food intake, water intake, urine volume and wet fecal weight were recorded, along with any observation of diarrhea. Fecal samples were dried using a lyophilizer for at least 3 days, following which dry weight was recorded and fecal fluid content was calculated based on the difference between the wet and dry stool weights. Fecal fluid content on day 3 of compound treatment was calculated as a change from the vehicle group mean. For urine samples, the volumes were determined gravimetrically. Feces and urine were analyzed for sodium content by microwave plasma-atomic emission spectroscopy or ion chromatography, respectively. Urine samples were analyzed on an ion chromatography system (Thermo Fisher ICS-3000 or ICS-5000+) coupled with conductivity detectors. Chromatographic separation of cations was performed using an IonPac CS12A (Thermo Fisher) 2×250 mm analytical column with an isocratic elution using […] methanesulfonic acid. Concentrations were interpolated from a a standard curve (prepared in 10 mM HCl) for sodium ion based on retention time and peak area. Fecal sample analysis by Microwave Plasma Atomic Emission Spectrometry (MP-AES). Dry fecal samples were ground into a fine powder on a homogenizer and the ground samples (400-600 mg aliquots weighed) were digested with nitric acid by microwave method (Mars 6). These digested samples were diluted with 1% Nitric acid and analyzed on Agilent 4100 MP-AES. Concentrations were calculated relative to a standard curve (prepared in 1% Nitric acid) for sodium based on the signal intensity. Sodium was detected at a wavelength of 588.995 nm. Twenty-four-hour urinary sodium excretion (ma/24-hours) was calculated by multiplying urinary sodium concentration by 24-hour urine volume. Twenty-four-hour fecal sodium excretion (mg/24-hours) was calculated by multiplying fecal sodium concentration by 24-hour dry fecal weight. The urinary and fecal sodium excretion on day 3 of compound treatment were normalized to dietary sodium intake and expressed as a percentage of the vehicle mean.

The target of the next assay is T1, NHE3 (Homo sapiens, UniProt P48764).
T1 construct: expressed in transfected cells
T1 sequence (P48764 26-834): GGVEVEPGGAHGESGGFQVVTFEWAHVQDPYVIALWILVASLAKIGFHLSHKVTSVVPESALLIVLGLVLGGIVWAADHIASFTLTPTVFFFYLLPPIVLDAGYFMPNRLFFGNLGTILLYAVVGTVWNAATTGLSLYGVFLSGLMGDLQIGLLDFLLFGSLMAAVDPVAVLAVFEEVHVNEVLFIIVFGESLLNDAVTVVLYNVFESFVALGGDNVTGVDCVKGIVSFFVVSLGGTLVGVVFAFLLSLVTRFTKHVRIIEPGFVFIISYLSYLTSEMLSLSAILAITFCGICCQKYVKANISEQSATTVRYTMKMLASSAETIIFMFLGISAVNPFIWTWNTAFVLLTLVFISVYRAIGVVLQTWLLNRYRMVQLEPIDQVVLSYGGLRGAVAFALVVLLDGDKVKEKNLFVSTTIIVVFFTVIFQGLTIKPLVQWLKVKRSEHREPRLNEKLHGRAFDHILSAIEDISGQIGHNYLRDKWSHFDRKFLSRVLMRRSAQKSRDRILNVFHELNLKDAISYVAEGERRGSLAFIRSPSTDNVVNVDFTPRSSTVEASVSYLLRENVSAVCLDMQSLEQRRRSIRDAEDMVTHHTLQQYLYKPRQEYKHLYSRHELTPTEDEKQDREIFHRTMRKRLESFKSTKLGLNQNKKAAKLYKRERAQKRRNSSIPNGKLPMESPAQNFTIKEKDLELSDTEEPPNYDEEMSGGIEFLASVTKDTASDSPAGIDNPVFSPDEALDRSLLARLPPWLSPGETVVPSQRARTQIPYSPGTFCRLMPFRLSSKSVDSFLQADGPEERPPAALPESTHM
T1 sequence (Q99653 2-195 partner limits assumed): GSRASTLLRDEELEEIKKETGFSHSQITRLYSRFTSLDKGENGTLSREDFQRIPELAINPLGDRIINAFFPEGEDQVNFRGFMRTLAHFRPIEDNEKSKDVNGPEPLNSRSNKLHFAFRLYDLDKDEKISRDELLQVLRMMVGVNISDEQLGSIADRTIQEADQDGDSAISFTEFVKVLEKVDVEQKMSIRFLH
Briefly: Cell-based assay of NHE-3 activity (persistent inhibition), human. The settings on record: human Persistence, 60 min incubation then washout. Put shortly: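 Persistent inhibition: compound (0-30 μM, 60 min, RT, NaCl-HEPES pH 7.4) removed before assay. Human NHE3/NHERF2 PS120 cells were then BCECF-loaded during NH4Cl pulse (30 min, 37 °C), acidified in Na+-free buffer, and Na+ added 10 min after washout; antiport measured as initial fluorescence-ratio change per minute.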

[2] abbreviates: day 3, normalized to dietary sodium intake.
Where [3] appears, read: day 3, normalized to dietary sodium intake, read-out: Fecal Na Excretion (% of vehicle).
Where [4] appears, read: day 3, normalized to dietary sodium intake, read-out: Urinary Na Excretion (% of vehicle).

For the compound “3-[2-(2-[2-[(4-[[(1S,2S)-4,6-Dichloro-2-[(3R)-3-[methyl(propan-2-yl)amino]piperidin-1-yl]-2,3-dihydro-1H-inden-1-yl]oxy]benzene) sulfonamido]ethoxy]ethoxy)ethyl]-1-[4-([[2-(2-[2-[(4-[[(1S,2S)-4,6-dichloro-2-[(3R)-3-[methyl(propan-2-yl)amino]piperidin-1-yl]-2,3-dihydro-1H-inden-1-yl]oxy]benzene)sulfonamido]ethoxy]ethoxy)ethyl]carbamoyl]amino)butyl]urea; bis(trifluoroacetic acid) [Example 78]”, the “Fecal fluid content (Δ from vehicle)” value in assay [1] is recorded as “A (<5)”. In assay [1] (setting [2]), the “Fecal Na Excretion (% of vehicle)” value is on record as “A (<150%)” and the “Urinary Na Excretion (% of vehicle)” value is “A (>70%)”. For the same compound, on NHE3, the “% inhibition” value is on record as “C (>70%)”.

In the case of `Cc1cc(S(=O)(=O)NCCOCCOCCNC(=O)NCCCCNC(=O)NCCOCCOCCNS(=O)(=O)c2ccc(O[C@H]3c4cc(Cl)cc(C)c4C[C@@H]3N(C)C)c(C)c2)ccc1O[C@H]1c2cc(Cl)cc(C)c2C[C@@H]1N(C)C` [Example 17, 3-[2-(2-[2-[(4-[[(1S,2S)-6-Chloro-2-(dimethylamino)-4-methyl-2,3-dihydro-1H-inden-1-yl]oxy]-3-methylbenzene)sulfonamido]ethoxy]ethoxy)ethyl]-1-[4-([[2-(2-[2-[(4-[[(1S,2S)-6-chloro-2-(dimethylamino)-4-methyl-2,3-dihydro-1H-inden-1-yl]oxy]-3-methylbenzene)sulfonamido]ethoxy]ethoxy)ethyl]carbamoyl]amino)butyl]urea], the “Fecal fluid content (Δ from vehicle)” value in assay [1] is “B (5-10)”. In addition, the response vs control in vivo at 15 mg/kg in assay [1] (setting [3]) was 150 to 200%. Moreover, the response vs control in vivo at 15 mg/kg in assay [1] (setting [4]) fell in the range of 50 to 70%. Besides, at NHE3, the “% inhibition” value is “C (>70%)” and the pIC50 entry is given as “C (NHE3 pIC50 > 7)”.

As to `CN(C)[C@H]1Cc2c(Cl)cc(Cl)cc2[C@@H]1Oc1ccc(S(=O)(=O)NCCOCCOCCNC(=O)NCCCCNC(=O)NCCOCCOCCNS(=O)(=O)c2ccc(O[C@H]3c4cc(Cl)cc(Cl)c4C[C@@H]3N(C)C)c(F)c2)cc1F` [Example 23, 3-[2-(2-[2-[(4-[[(1S,2S)-4,6-Dichloro-2-(dimethylamino)-2,3-dihydro-1H-inden-1-yl]oxy]-3-fluorobenzene)sulfonamido]ethoxy]ethoxy)ethyl]-1-[4-([[2-(2-[2-[(4-[[(1S,2S)-4,6-dichloro-2-(dimethylamino)-2,3-dihydro-1H-inden-1-yl]oxy]-3-fluorobenzene)sulfonamido]ethoxy]ethoxy)ethyl]carbamoyl]amino)butyl]urea; bis(trifluoroacetic acid)], the “Fecal fluid content (Δ from vehicle)” value in assay [1] is given as “B (5-10)”. In addition, in assay [1] (setting [3]), the response vs control in vivo at 15 mg/kg was 150 to 200%. Besides, the response vs control in vivo at 15 mg/kg in assay [1] (setting [4]) fell in the range of 50 to 70%. For the same compound, on NHE3, the “% inhibition” value was “C (>70%)” and the pIC50 result is on record as “C (NHE3 pIC50 > 7)”.

On to `N#Cc1cc(Cl)cc2c1C[C@H](N1CCCNCC1)[C@H]2Oc1ccc(S(=O)(=O)N[C@H]2CCN(CCOCCNC(=O)NCCCCNC(=O)NCCOCCN3CC[C@H](NS(=O)(=O)c4ccc(O[C@H]5c6cc(Cl)cc(C#N)c6C[C@@H]5N5CCCNCC5)cc4)C3)C2)cc1` [Example 126, 4-([(1S,2S)-6-Chloro-4-cyano-2-(1,4-diazepan-1-yl)-2,3-dihydro-1H-inden-1-yl]oxy)-N—[(S)-1-(20-[(S)-3-([4-([(1S,2S)-6-chloro-4-cyano-2-(1,4-diazepan-1-yl)-2,3-dihydro-1H-inden-1-yl]oxy)phenyl]sulfonamido)pyrrolidin-1-yl]-7,14-dioxo-3,18-dioxa-6,8,13,15-tetraazaicosyl)pyrrolidin-3-yl]benzenesulfonamide], for which, at NHE3, the “% inhibition” value was “B (40-70%)” and the IC50 was below 100 nM.

Turning to `C[C@@H]1CN([C@H]2Cc3c(C#N)cc(Cl)cc3[C@@H]2Oc2ccc(S(=O)(=O)N[C@H]3CCN(CCOCCNC(=O)NCCCCNC(=O)NCCOCCN4CC[C@H](NS(=O)(=O)c5ccc(O[C@H]6c7cc(Cl)cc(C#N)c7C[C@@H]6N6CCN[C@H](C)C6)cc5)C4)C3)cc2)CCN1` [Example 132, 4-([(1S,2S)-6-Chloro-4-cyano-2-[(R)-3-methylpiperazin-1-yl]-2,3-dihydro-1H-inden-1-yl]oxy)-N—[(S)-1-(20-[(S)-3-([4-([(1S,2S)-6-chloro-4-cyano-2-[(R)-3-methylpiperazin-1-yl]-2,3-dihydro-1H-inden-1-yl]oxy)phenyl]sulfonamido)pyrrolidin-1-yl]-7,14-diaxo-3,18-dioxa-5,8,13,15-tetraazaicosyl)pyrrolidin-3-yl]benzenesulfonamide; bis(trifluoroacetic acid)], on NHE3, the “% inhibition” value is on record as “C (>70%)” and the pIC50 result is recorded as “C (NHE3 pIC50 > 7)”.

`C[C@@H]1CN([C@H]2Cc3c(C#N)cc(Cl)cc3[C@@H]2Oc2ccc(S(=O)(=O)N[C@@H]3CCN(CCOCCNC(=O)NCCCCNC(=O)NCCOCCN4CC[C@@H](NS(=O)(=O)c5ccc(O[C@H]6c7cc(Cl)cc(C#N)c7C[C@@H]6N6CCN[C@H](C)C6)cc5)C4)C3)cc2)CCN1` [Example 133, 4-([(1S,2S)-6-Chloro-4-cyano-2-[(R)-3-methylpiperazin-1-yl]-2,3-dihydro-1H-inden-1-yl]oxy)-N—[(R)-1-(20-[(R)-3-([4-([(1S,2S)-6-chloro-4-cyano-2-[(R)-3-methylpiperazin-1-yl]-2,3-dihydro-1H-inden-1-yl]oxy)phenyl]sulfonamido)pyrrolidin-1-yl]-7,14-dioxo-3,18-dioxa-6,8,13,15-tetraazaicosyl)pyrrolidin-3-yl]benzenesulfonamide; bis(trifluoroacetic acid)]: on NHE3, the “% inhibition” value is “C (>70%)” and the pIC50 entry was “C (NHE3 pIC50 > 7)”.

For `N#Cc1cc(Cl)cc2c1C[C@H](N1CCNCC1)[C@H]2Oc1ccc(S(=O)(=O)N[C@H]2CCN(C(=O)CCCNC(=O)NCCCCNC(=O)NCCCC(=O)N3CC[C@H](NS(=O)(=O)c4ccc(O[C@H]5c6cc(Cl)cc(C#N)c6C[C@@H]5N5CCNCC5)cc4)C3)C2)cc1` [Example 143, 4-([(1S,2S)-6-Chloro-4-cyano-2-(piperazin-1-yl)-2,3-dihydro-1H-inden-1-yl]oxy)-N—[(S)-1-(18-[(S)-3-([4-([(1S,2S)-6-chloro-4-cyano-2-(piperazin-1-yl)-2,3-dihydro-1H-inden-1-yl]oxy)phenyl]sulfonamido)pyrrolidin-1-yl]-6,13,18-trioxo-5,7,12,14-tetraazaoctadecanoyl)pyrrolidin-3-yl]benzenesulfonamide], on NHE3, the “% inhibition” value was “C (>70%)” and the pIC50 result is given as “C (NHE3 pIC50 > 7)”.

Source of the values: patent publication US11242337B2, “Compounds useful for treating gastrointestinal tract disorders” (Ardelyx, Inc., priority 2017, dated 2022).
